Test results: ChEMBL document CHEMBL5465560, “Selectivity Literature for EUbOPEN Chemogenomic Library” (2024)
Blank lines part the entries; values can stand above or below the compound they belong to.

Key:
[1] = biological target: Tyrosine-protein kinase receptor Tie-1 (Homo sapiens) (UniProt P35590); assay: Selectivity interaction (KinomeScan (DiscoverX)) EUB0000666a TIE1; conditions: at 10 µM
Aurora kinase B = Aurora kinase B (Homo sapiens, UniProt Q96GD4); assay: Selectivity interaction (Kinase panel (literature)) EUB0001199aCl AURKB; conditions: at 1 µM
Chain of Aurora kinase B (Q96GD4 whole entry): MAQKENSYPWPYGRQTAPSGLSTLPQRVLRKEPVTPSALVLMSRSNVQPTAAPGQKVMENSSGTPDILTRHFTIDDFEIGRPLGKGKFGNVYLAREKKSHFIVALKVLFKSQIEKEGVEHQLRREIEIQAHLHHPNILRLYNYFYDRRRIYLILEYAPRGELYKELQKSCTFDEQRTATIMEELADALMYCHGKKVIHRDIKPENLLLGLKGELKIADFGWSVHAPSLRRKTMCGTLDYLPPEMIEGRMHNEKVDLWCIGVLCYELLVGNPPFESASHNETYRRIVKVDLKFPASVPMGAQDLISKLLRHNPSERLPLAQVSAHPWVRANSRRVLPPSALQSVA

[2] = biological target: Kappa-type opioid receptor (Homo sapiens, UniProt P41145); assay: Selectivity interaction (Panel of kinases, GPCRs, ion channels and transporters (enzymatic assay)) EUB0000266bCl OPRK1
Chain of Kappa-type opioid receptor (P41145 whole entry): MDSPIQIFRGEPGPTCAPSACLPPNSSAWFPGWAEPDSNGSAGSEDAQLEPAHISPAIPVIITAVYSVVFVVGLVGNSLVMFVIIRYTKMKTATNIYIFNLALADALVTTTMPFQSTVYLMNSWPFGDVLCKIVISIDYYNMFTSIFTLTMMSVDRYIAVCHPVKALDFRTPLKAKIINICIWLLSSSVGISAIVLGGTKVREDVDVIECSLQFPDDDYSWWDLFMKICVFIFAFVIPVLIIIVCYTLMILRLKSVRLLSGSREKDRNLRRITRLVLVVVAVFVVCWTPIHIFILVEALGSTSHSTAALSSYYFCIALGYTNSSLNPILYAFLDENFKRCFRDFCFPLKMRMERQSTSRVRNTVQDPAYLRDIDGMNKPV

[3] = biological target: Ephrin type-A receptor 5 (Homo sapiens) (UniProt P54756); assay: Selectivity interaction (Kinase panel (Invitrogen)) EUB0000639a EPHA5; conditions: at 200 nM
Chain of Ephrin type-A receptor 5 (Homo sapiens) (P54756 whole entry): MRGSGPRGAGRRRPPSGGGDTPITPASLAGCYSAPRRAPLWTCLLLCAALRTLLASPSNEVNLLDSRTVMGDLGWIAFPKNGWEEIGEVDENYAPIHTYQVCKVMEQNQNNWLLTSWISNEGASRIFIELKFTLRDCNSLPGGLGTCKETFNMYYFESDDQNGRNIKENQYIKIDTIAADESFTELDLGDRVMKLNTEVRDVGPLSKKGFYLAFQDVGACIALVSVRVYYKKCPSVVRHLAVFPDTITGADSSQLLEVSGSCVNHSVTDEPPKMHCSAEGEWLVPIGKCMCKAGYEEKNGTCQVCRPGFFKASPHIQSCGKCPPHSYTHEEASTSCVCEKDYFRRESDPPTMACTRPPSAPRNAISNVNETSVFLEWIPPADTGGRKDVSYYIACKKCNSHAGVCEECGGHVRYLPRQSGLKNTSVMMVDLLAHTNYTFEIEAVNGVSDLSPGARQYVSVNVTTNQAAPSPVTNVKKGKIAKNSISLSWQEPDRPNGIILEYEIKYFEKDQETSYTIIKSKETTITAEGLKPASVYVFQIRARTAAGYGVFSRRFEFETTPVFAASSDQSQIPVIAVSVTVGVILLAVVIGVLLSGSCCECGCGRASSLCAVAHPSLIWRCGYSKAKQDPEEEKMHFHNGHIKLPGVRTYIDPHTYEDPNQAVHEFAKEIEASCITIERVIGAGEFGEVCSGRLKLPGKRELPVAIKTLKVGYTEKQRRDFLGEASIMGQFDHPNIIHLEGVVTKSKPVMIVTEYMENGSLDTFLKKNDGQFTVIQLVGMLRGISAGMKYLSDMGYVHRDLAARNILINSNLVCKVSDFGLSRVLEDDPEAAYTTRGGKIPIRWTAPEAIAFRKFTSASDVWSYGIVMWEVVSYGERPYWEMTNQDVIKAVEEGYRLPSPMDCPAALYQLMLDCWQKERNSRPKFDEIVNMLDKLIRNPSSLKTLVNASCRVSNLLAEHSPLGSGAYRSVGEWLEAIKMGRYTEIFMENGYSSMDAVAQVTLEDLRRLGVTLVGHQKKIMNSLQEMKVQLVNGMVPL

[4] = biological target: Mitogen-activated protein kinase kinase kinase kinase 1 (Homo sapiens) (UniProt Q92918); assay: Selectivity interaction (ActivX KiNativ screen (kinase selectivity in THP-1 cell lysates)) EUB0000639a MAP4K1; assay type: subcellular; conditions: lysate, at 0.04 µM
Chain of Mitogen-activated protein kinase kinase kinase kinase 1 (Homo sapiens) (Q92918 whole entry, looked up): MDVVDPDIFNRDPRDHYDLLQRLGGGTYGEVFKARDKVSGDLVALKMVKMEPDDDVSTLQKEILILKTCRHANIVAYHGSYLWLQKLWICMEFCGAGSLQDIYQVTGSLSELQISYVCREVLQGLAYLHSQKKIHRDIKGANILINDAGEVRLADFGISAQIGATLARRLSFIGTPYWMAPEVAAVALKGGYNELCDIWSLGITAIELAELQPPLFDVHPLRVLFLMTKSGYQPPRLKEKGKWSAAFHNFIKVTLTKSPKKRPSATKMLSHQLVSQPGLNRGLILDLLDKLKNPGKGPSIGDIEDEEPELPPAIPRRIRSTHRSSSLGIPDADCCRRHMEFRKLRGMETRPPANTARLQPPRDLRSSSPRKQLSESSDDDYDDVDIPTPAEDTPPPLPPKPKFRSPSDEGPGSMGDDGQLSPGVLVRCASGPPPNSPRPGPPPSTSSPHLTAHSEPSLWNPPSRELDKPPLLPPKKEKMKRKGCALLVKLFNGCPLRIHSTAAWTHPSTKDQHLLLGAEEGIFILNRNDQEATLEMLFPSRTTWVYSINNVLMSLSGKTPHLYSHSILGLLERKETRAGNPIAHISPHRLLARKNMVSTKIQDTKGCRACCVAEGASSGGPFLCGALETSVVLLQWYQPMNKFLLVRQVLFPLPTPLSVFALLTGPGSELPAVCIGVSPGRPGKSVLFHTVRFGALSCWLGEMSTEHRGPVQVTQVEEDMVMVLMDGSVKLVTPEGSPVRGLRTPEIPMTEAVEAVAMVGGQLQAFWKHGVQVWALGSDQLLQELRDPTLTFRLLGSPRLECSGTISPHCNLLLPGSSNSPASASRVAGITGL

[5] = biological target: Ribosomal protein S6 kinase alpha-6 (Homo sapiens, UniProt Q9UK32); assay: Selectivity interaction (KinomeScan (DiscoverX)) EUB0001049a RPS6KA6; conditions: at 1 µM
Chain of Ribosomal protein S6 kinase alpha-6 (Q9UK32 whole entry): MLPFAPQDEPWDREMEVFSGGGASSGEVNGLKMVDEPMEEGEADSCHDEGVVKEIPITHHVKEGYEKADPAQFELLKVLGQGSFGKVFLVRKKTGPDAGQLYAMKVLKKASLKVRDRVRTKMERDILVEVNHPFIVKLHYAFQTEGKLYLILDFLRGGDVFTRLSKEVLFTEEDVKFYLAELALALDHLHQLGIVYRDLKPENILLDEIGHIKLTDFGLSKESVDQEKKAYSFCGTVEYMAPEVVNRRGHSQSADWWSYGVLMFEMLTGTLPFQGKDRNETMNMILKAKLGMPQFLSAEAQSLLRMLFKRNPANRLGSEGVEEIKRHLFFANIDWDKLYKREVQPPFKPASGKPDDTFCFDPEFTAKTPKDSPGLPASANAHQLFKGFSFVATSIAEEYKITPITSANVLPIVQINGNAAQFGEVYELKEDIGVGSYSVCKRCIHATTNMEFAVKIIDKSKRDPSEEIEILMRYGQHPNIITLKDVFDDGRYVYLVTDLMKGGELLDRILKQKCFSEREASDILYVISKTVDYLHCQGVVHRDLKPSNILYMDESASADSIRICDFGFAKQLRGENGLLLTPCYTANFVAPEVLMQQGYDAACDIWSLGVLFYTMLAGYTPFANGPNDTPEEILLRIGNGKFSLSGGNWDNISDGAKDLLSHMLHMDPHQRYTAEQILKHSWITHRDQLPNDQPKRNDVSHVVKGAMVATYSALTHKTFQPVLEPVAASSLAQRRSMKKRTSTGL

[6] = biological target: T1, Serine/threonine-protein kinase ULK1 (Homo sapiens) (UniProt O75385); assay: Selectivity interaction (KinomeScan (DiscoverX)) EUB0001079a ULK1; conditions: at 1 µM
T1 sequence (whole entry): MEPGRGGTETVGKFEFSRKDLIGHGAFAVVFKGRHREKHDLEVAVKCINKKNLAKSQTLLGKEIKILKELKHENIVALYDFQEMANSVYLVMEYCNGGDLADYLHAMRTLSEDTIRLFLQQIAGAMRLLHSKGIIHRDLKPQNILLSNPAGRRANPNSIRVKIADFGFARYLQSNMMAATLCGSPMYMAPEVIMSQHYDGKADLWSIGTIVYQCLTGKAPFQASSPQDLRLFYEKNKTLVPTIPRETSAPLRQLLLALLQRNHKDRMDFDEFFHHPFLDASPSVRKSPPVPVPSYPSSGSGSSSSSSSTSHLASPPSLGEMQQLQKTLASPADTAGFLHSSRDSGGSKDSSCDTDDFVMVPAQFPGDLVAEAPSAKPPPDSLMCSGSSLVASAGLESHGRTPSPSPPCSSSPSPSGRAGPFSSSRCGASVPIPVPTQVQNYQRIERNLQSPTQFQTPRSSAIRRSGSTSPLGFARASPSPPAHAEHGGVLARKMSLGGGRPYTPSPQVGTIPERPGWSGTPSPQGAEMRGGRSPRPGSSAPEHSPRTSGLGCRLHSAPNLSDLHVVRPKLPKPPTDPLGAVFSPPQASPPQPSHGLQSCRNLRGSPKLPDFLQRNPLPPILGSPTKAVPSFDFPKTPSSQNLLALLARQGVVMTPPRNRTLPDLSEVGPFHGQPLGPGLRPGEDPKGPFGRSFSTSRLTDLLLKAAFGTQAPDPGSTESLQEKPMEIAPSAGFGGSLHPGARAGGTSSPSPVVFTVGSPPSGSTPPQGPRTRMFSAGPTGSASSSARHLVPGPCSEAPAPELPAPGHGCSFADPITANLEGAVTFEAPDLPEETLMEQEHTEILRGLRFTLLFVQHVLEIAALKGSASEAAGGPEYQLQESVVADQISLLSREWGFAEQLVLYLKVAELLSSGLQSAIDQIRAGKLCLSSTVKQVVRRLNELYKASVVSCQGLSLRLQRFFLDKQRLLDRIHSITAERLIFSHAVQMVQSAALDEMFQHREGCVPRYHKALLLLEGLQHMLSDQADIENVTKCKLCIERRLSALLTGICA

[7] = biological target: T2, Homeodomain-interacting protein kinase 4 (Homo sapiens) (UniProt Q8NE63); assay: Selectivity interaction (KinomeScan (DiscoverX)) EUB0000092b HIPK4; conditions: at 10 µM
T2 sequence (whole entry): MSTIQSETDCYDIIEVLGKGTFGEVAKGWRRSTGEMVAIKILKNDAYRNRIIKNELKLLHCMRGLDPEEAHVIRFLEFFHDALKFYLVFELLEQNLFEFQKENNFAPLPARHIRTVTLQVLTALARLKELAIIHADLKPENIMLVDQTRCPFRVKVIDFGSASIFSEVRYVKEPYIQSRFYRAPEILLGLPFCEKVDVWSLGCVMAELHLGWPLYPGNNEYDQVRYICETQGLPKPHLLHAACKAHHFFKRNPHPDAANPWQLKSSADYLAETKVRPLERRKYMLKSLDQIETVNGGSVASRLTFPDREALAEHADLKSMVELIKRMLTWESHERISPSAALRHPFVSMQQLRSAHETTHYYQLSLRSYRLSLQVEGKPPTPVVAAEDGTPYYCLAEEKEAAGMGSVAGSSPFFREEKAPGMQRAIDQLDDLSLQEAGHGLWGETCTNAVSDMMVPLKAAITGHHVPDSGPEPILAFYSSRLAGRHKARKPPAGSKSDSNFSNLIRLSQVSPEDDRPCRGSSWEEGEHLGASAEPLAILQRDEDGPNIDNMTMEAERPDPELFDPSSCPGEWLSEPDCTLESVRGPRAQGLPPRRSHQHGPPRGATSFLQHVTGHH

Chain of Tyrosine-protein kinase receptor Tie-1 (Homo sapiens) (P35590 whole entry): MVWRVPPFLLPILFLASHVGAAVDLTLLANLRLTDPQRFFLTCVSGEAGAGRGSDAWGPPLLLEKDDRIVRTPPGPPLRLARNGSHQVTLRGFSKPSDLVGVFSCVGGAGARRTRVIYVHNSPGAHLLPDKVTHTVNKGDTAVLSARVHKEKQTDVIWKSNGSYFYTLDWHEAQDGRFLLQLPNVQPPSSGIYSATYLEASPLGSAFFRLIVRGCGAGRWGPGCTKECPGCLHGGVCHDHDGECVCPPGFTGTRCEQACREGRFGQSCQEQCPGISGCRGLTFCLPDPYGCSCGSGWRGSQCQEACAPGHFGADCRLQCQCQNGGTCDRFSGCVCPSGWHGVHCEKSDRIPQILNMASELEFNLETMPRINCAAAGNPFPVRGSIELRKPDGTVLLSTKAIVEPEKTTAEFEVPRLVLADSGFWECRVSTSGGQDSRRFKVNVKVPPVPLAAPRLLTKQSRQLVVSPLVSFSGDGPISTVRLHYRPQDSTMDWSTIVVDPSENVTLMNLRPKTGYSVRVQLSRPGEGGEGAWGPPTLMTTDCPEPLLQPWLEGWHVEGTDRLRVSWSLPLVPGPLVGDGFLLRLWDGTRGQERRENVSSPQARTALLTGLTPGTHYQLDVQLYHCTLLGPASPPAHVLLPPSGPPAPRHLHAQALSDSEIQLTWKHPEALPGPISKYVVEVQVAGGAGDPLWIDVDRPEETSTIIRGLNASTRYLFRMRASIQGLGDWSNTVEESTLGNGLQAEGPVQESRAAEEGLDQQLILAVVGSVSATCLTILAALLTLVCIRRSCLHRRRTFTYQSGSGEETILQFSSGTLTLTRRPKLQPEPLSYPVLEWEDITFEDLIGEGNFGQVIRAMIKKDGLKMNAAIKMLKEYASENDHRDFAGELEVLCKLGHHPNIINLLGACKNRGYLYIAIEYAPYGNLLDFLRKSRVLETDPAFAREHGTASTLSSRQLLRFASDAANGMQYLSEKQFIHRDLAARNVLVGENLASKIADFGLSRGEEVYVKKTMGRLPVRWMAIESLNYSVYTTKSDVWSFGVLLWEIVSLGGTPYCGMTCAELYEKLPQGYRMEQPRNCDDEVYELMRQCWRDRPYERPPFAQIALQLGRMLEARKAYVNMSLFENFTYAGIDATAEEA

Compound: O=C(NOC[C@H](O)CO)c1ccc(F)c(F)c1Nc1ccc(I)cc1F
% of control [1]: 54%

% of inhibition (Aurora kinase B): 4%
Compound: CN1Cc2nccc(-c3cn(C)nc3-c3ccc(F)cc3)c2C1=O

pXC50 [2]: < 4 M
Compound: CCn1c(-c2nc3cc(C(=O)N4CCCC(N)C4)ccc3n2C)cc2ccccc21 (stereo not drawn)

% of inhibition [3]: -0.246%
% of inhibition [4]: -4.8%
Compound: CC[C@@H]1[C@H](F)C(=O)N[C@@H]1COc1nccc2cc(C(N)=O)c(OC)cc12 [ZIMLOVISERTIB]

Compound: COc1cc(Nc2nc(C)cc(-c3cnn4nc(OC)ccc34)n2)cc(C(F)(F)F)c1
% of control [5]: 82%

Compound: Nc1cnc(N2CCc3cc(S(=O)(=O)Nc4c(F)cc(Cl)cc4F)cc(N4CCCC4=O)c32)nc1 [TP-020n]
% of control [6]: 95%

Compound: CCC(=O)N1CCN(c2ccc(-n3c(=O)ccc4cnc5ccc(-c6cnc7ccccc7c6)cc5c43)cc2C(F)(F)F)CC1
% of control [7]: 4.6%
